# Assay results taken from patent US20230312561A1, “SOLID FORMS OF (Z)-METHYL 3-(((4-(N-METHYL-2-(4-METHYLPIPERAZIN-1-YL)ACETAMIDO)PHENYL)AMINO)(PHENYL)METHYLENE)-2-OXO-2,3-DIHYDRO-1H-PYRROLO[2,3-B]PYRIDINE-6-CARBOXYLATE AND SALTS THEREOF” (Angion Biomedica Corp., priority 2020, published 2023).
# What was measured:
# Assay type in all cases: physicochemical
# [1] = Solution state stability of Compound 1 Hydrochloride (HPLC purity in stressing media, 25° C.)
# Experimental: The solution state stability of Compound 1 Hydrochloride Form A (Type 1 Lot) was examined under various storage conditions within a suitable glass vessel with stirrer bead agitation at 25° C. Compound 1 Hydrochloride stock solution ([…]) in HPLC diluent (acetonitrile/water, 1:1) was prepared and 5 mL placed within suitable glass vessels with stirrer bead agitation at 25° C. An aliquot of the appropriate stressing medium (5 mL) was added to achieve a sample concentration of approximately 0.5 mg/mL. The samples were agitated and stored at 25° C. and the solutions assessed for HPLC purity for stability at particular time points.
# [2] = Solid state stability in sealed vial (XRPD, TGA, HPLC)
# Experimental: High performance liquid chromatography (HPLC) was performed according to the conditions described in Table 1: […] Upon storage for the appropriate period, the entire sample was removed, and the resulting solids assessed via XRFD, HPLC and TGA. Sample preparation for HPLC was conducted using deionized water and a working concentration of 0.5 mg/mL. […] A control sample was packed and stored in an equivalent manner and tested at T=2 and 4 weeks. Form A was stable at 40° C. and 80° C. for at least up to 4 weeks.
# [3] = Organic solubility (thermodynamic, 25° C., heating cycle to 75° C.); details: for Solubility at 25° C.: 20 volumes; for XRPD after heat/cool cycle: cycle up to 75° C.
# Experimental: Compound 1 Hydrochloride Form A (Type 1 Lot) (ca. 50 mg) was equilibrated in a range of organic solvents in order to collect thermodynamic values for solubility. Solvents were charged in 500 μL aliquots (ca. 10 volumes) to the Compound 1 Hydrochloride Form A (Type 1 Lot) dispensed as a powder (ca. 50 mg) in 16 mm diameter glass reaction tubes until dissolution was achieved or up to 1000 μL (ca. 20 volumes) total volume was charged, with observations noted during dosing. The samples were equilibrated at 25° C. for a minimum of 24 hours with stirrer bead agitation.
# Samples which remained as suspensions and contained enough solids were split into two equal portions, with one portion isolated by filtration and the resulting damp solids profiled by XRPD. These solids were then dried in vacuo at 45° C. for ca. 16 hours before further profiling. The filtrates from the solvent suspensions were isolated, diluted by 1 in 50 using acetonitrile/water (1:1), and the Compound 1 content determined by HPLC against a single point standard.
# The remaining portion of each suspension was subjected to a heating cycle up to 75° C. with equilibration at 10° C. temperature intervals for a minimum of 30 minutes, before allowing to cool naturally to 40° C., followed by equilibration for ca. 16 hours before continuing to cool naturally (approximately 10° C./hr) to 25° C.
# [4] = 40° C., sealed vial, T = 1 week
# [5] = 40° C., sealed vial, T = 2 weeks
# [6] = 40° C., sealed vial, T = 4 weeks
# [7] = 80° C., sealed vial, T = 1 week
# [8] = 80° C., sealed vial, T = 2 weeks
# [9] = 80° C., sealed vial, T = 4 weeks
# [10] = 150° C., sealed vial, T = 1 week
compound,measurement,setting,value
COC(=O)c1ccc2c(c1)NC(=O)/C2=C(\Nc1ccc(N(C)C(=O)CN2CCN(C)CC2)cc1)c1ccccc1.Cl [Compound 1 Hydrochloride Form A (Type 1 Lot)],HPLC (%),"[1]; 1 M HCl, 1 h",99.53%
same,HPLC (%),"[1]; 1 M HCl, 6 h",99.29%
same,HPLC (%),"[1]; 1 M HCl, 24 h",96.56%
same,HPLC (%),"[1]; 1 M HCl, 3 d",95.63%
same,HPLC (%),"[1]; 1 M HCl, 7 d",90.58%
same,HPLC (%),"[1]; 1 M NaOH, 1 h",0.49%
same,HPLC (%),"[1]; 1 M NaOH, 6 h",0.65%
same,HPLC (%),"[1]; 5% H2O2, 1 h",80.39%
same,HPLC (%),"[1]; 5% H2O2, 6 h",46.74%
same,HPLC (%),"[1]; 5% H2O2, 24 h",0.42%
same,HPLC (%),"[1]; Control (water), 1 h",99.68%
same,HPLC (%),"[1]; Control (water), 6 h",99.69%
same,HPLC (%),"[1]; Control (water), 24 h",99.54%
same,HPLC (%),"[1]; Control (water), 3 d",99.42%
same,HPLC (%),"[1]; Control (water), 7 d",99.50%
same,solid state stability in sealed vial,"[2]; 40° C. and 80° C., at least up to 4 weeks",stable
same,HPLC (%),[2]; [4],99.43%
same,TGA (%),[2]; [4],12.01%
same,HPLC (%),[2]; [5],99.43%
same,TGA (%),[2]; [5],12.15%
same,HPLC (%),[2]; [6],99.65%
same,TGA (%),[2]; [6],11.6%
same,XRPD,[2]; [6],Form A
same,HPLC (%),[2]; [7],99.53%
same,TGA (%),[2]; [7],3.76%
same,HPLC (%),[2]; [8],99.45%
same,TGA (%),[2]; [8],3.71%
same,HPLC (%),[2]; [9],99.59%
same,TGA (%),[2]; [9],3.35%
same,HPLC (%),[2]; [10],36.6%
same,TGA (%),[2]; [10],1.14%
same,HPLC (%),"[2]; Ambient (control), T = 0",99.54%
same,TGA (%),"[2]; Ambient (control), T = 0",12.07%
same,HPLC (%),"[2]; Ambient (control), T = 2 weeks",99.43%
same,TGA (%),"[2]; Ambient (control), T = 2 weeks",11.99%
same,HPLC (%),"[2]; Ambient (control), T = 4 weeks",99.53%
same,TGA (%),"[2]; Ambient (control), T = 4 weeks",12.15%
same,XRPD,"[2]; Ambient (control), T = 4 weeks",Form A
same,Observation after heat/cool cycle,[3],Suspension
same,XRPD after equilibration at 25° C.,[3]; 2-Butanone,Form C
same,Solubility at 25° C.,[3]; 2-Butanone,4.9 µg/mL
same,XRPD after heat/cool cycle,[3]; 2-Butanone,Form C
same,XRPD after equilibration at 25° C.,[3]; 2-Propanol,Form C
same,Solubility at 25° C.,[3]; 2-Propanol,60 µg/mL
same,XRPD after heat/cool cycle,[3]; 2-Propanol,Form C
same,XRPD after equilibration at 25° C.,[3]; Acetone,Form C
same,Solubility at 25° C.,[3]; Acetone,14.4 µg/mL
same,XRPD after heat/cool cycle,[3]; Acetone,Form C
same,XRPD after equilibration at 25° C.,[3]; Acetonitrile,Form C
same,Solubility at 25° C.,[3]; Acetonitrile,170 µg/mL
same,XRPD after heat/cool cycle,[3]; Acetonitrile,Form C
same,Solubility at 25° C.,[3]; Anisole,8.1 µg/mL
same,XRPD after heat/cool cycle,[3]; Anisole,Unassigned form
same,XRPD after equilibration at 25° C.,[3]; DMSO,Form A
same,Solubility at 25° C.,[3]; DMSO,10820 µg/mL
same,XRPD after heat/cool cycle,[3]; DMSO,Form A
same,Solubility at 25° C.,[3]; Dichloromethane,1750 µg/mL
same,XRPD after heat/cool cycle,[3]; Dichloromethane,Form C
same,XRPD after equilibration at 25° C.,[3]; Diethyl ether,Form C
same,Solubility at 25° C.,[3]; Diethyl ether,3 µg/mL
same,XRPD after heat/cool cycle,[3]; Diethyl ether,Form C
same,XRPD after equilibration at 25° C.,[3]; Ethanol,Form C
same,Solubility at 25° C.,[3]; Ethanol,880 µg/mL
same,XRPD after heat/cool cycle,[3]; Ethanol,Form C
same,XRPD after equilibration at 25° C.,[3]; Ethyl acetate,Form C
same,Solubility at 25° C.,[3]; Ethyl acetate,1.8 µg/mL
same,XRPD after heat/cool cycle,[3]; Ethyl acetate,Form C
same,XRPD after equilibration at 25° C.,[3]; Heptane,Form A
same,Solubility at 25° C.,[3]; Heptane,2.2 µg/mL
same,XRPD after heat/cool cycle,[3]; Heptane,Form A
same,XRPD after equilibration at 25° C.,[3]; Isopropyl acetate,Form C
same,Solubility at 25° C.,[3]; Isopropyl acetate,2.8 µg/mL
same,XRPD after heat/cool cycle,[3]; Isopropyl acetate,Form C
same,XRPD after equilibration at 25° C.,[3]; MIBK,Form C
same,Solubility at 25° C.,[3]; MIBK,1.8 µg/mL
same,XRPD after heat/cool cycle,[3]; MIBK,Form C
same,XRPD after equilibration at 25° C.,[3]; Methanol,Form B
same,Solubility at 25° C.,[3]; Methanol,4480 µg/mL
same,XRPD after equilibration at 25° C.,[3]; TBME,Form A
same,Solubility at 25° C.,[3]; TBME,2.3 µg/mL
same,XRPD after equilibration at 25° C.,[3]; Tetrahydrofuran,Form C
same,Solubility at 25° C.,[3]; Tetrahydrofuran,12.5 µg/mL
same,XRPD after heat/cool cycle,[3]; Tetrahydrofuran,Form C
same,XRPD after equilibration at 25° C.,[3]; Toluene,Form A
same,Solubility at 25° C.,[3]; Toluene,0.6 µg/mL
same,dissolution in organic solvents on heating cycle,"[3]; any temperature (25° C.-75° C.), any solvent tested",Full or partial dissolution was not observed
same,XRPD after equilibration at 25° C.,[3]; n-Butyl acetate,Form C
same,Solubility at 25° C.,[3]; n-Butyl acetate,0.7 µg/mL
same,XRPD after heat/cool cycle,[3]; n-Butyl acetate,Form C
